Like-named read-outs stand apart in the source and are kept apart here.
Tests used:
Staphylococcus aureus [1] = assay: Microbicidal activity of the myeloperoxidase system (p-MPO, glucose oxidase, glucose) with amino acids in the presence of blood, CFU plate counts; synergy determination from these CFU; format: cell-based; conditions: for Average Viability CFU/ml 60 min / Log Reduction 60 min: amino acid 5 mM (none: 0 mM), MPO 38 U/ml, GO 33.3 U/ml; for Average Viability CFU/ml 50 min / Log Reduction 50 min: MPO 4.7 U/ml, GO 4.2 U/ml
Protocol: Bacterial suspensions, specifically Staphylococcus aureus in this example, were prepared by the shake flask method to achieve late log to early stationary phase growth. Bacteria were grown 24 hours in trypticase soy broth (TSB) at 35° C. The cultures were centrifuged at 4,000 rpm for 10 minutes and the supernatants removed. The pellet was collected and washed twice with sterile 0.9% normal saline (NS). The washed microorganisms were suspended and diluted with normal saline to a 3 McFarland standard, i.e., approximately 10^9 bacteria colony forming units (CFU) per mL. Actual colony counts are confirmed by serial dilutions (10^−1 to 10^−5 or 10^−6) plated on TSA and incubated overnight at 35° C. To obtain an approximate final working target inoculum of 10^7 CFU/mL, 15 microliters of organisms per mL of final reaction mixture are used.
Glucose oxidase (GO) from Aspergillus Niger was purchased from Biozyme, Inc., UK, Cat #GO3A, 270 U/mg). Porcine Myeloperoxidase (p-MPO) (Exoxemis, Inc., Little Rock, Ark. U.S.A., 375 U/mg). Sterile stock solutions of D-glucose and sodium chloride were prepared and used at a final concentration of 150 mM each. L-Lysine hydrochloride (Spectrum Chemical Cat #L1142) was prepared as a 100 mM stock solution. Catalase (Sigma, Cat #C-40) was prepared as a 1% stock solution in sterile 0.9% normal saline. Blood was collected by venipuncture and used as whole blood within the same day.
Staphylococcus aureus were used to give a final target concentration of 2-3×10^7 CFU (7.4 log 10) per mL and venous whole blood was used to give a final concentration of 3%. Glucose was added to the reaction mixtures to a final concentration of 150 mM, which initiated the microbicidal reaction. The final volume of the reaction mixtures was 1 mL. The reactions were allowed to run from 30 minutes to 2 hours, as needed, at room temperature or at 37° C. in a dry bath. At the specified time points the reaction mixtures were treated with 100 microliters of a catalase solution, containing a minimum of 100 units/μL, to consume remaining peroxide and terminate the oxidative killing. Serial dilution plate counts were performed from the contents of each vial in sterile saline and inoculated onto trypticase soy agar (TSA) for quantitative culture. Plates were then incubated at 37° C. and counts taken at 24 hours. […] The results are shown in Table 1, as the average of 2 replicates.
The amino acids alone, in the absence of MPO were tested to rule out their microbicidal activity. The results are shown in Table 2 to Table 6, as the average of 2 replicates.
The amino acid analogues alone, in the absence of MPO, were tested to rule out their microbicidal activity. […]
The effect of two-way combinations of individual amino acids with L-isoleucine, as potential enhancing agents, for MPO microbicidal action in the presence of blood, was therefore examined by following the procedure of Example 5.
The Actual CFU observed for the pair is then divided by the Predicted CFU and multiplied by 100 to calculate the % of Predicted value. This value is then to be compared to the threshold value, discussed in the next section, to determine whether the pair are synergistic, antagonistic, or additive.
Calculation of appropriate threshold values for determination of synergism and antagonism was based upon the variability of replicated CFU survivor measures.

Staphylococcus aureus [2] = assay: Control: microbicidal activity of the amino acid or analogue alone (no glucose, MPO, glucose oxidase) in the presence of blood; format: cell-based; conditions: for log reduction at 5000 µM: Staphylococcus aureus, 1 h, read-out: Log Reduction 60 min
Excerpt: As a control to determine the microbicidal activity of the amino acids alone, the foregoing procedure was followed without replication, except in the absence of glucose, MPO, and glucose oxidase.

[3] = MPO 100 μg/mL, AA 20 mM, 30 min
[4] = MPO 100 μg/mL, AA 20 mM, 60 min
[5] = Table 10, single amino acid 2.5 mM, in the presence of blood, 50 min
[6] = Table 11, single amino acid 2.5 mM, in the presence of blood, 50 min
[7] = Table 14, single amino acid 2.5 mM, in the presence of blood, 50 min
[8] = amino acid alone 5 mM, MPO 0, GO 0, no glucose, blood, without replication
[9] = Table 19, amino acid (racemic, L- or D-form) 2.5 mM, 50 min
[10] = single amino acid 2.5 mM, blood
[11] = Table 13, single amino acid 2.5 mM, in the presence of blood, 50 min

Row | Compound | Log 10 (CFU + 1) Survivors (Staphylococcus aureus [1]; MPO 25 μg/mL, AA 5 mM, 30 min) | Log 10 (CFU + 1) Survivors (Staphylococcus aureus [1]; MPO 25 μg/mL, AA 5 mM, 60 min) | Log 10 (CFU + 1) Survivors (Staphylococcus aureus [1]; MPO 25 μg/mL, AA […], 30 min) | Log 10 (CFU + 1) Survivors (Staphylococcus aureus [1]; MPO 25 μg/mL, AA […], 60 min) | Log 10 (CFU + 1) Survivors (Staphylococcus aureus [1]; MPO 100 μg/mL, AA 5 mM, 30 min) | Log 10 (CFU + 1) Survivors (Staphylococcus aureus [1]; MPO 100 μg/mL, AA 5 mM, 60 min) | Log 10 (CFU + 1) Survivors (Staphylococcus aureus [1]; [3]) | Log 10 (CFU + 1) Survivors (Staphylococcus aureus [1]; [4]) | Average Viability CFU/ml 60 min (Staphylococcus aureus [1]; Table 5, blood) [CFU/ml] | Log Reduction 60 min (Staphylococcus aureus [1]; Table 5, blood) | Average Viability CFU/ml 50 min (Staphylococcus aureus [1]; [6]) [CFU/ml] | Log Reduction 50 min (Staphylococcus aureus [1]; [6]) | Average Viability CFU/ml 50 min (Staphylococcus aureus [1]; [7]) [CFU/ml] | Log Reduction 50 min (Staphylococcus aureus [1]; [7]) | log reduction at 5000 µM (Staphylococcus aureus [2]; [8]) | Average Viability CFU/ml 60 min (Staphylococcus aureus [2]; [8]) [CFU/ml] | Average Viability CFU/ml 50 min (Staphylococcus aureus [1]; [9]) [CFU/ml] | Log Reduction 50 min (Staphylococcus aureus [1]; [9]) | Average Viability CFU/ml 60 min (Staphylococcus aureus [1]; Table 4, blood) [CFU/ml] | Log Reduction 60 min (Staphylococcus aureus [1]; Table 4, blood) | also measured
1 | NC(=O)CC[C@@H](N)C(=O)O [D-Glutamine] | 7.3 | 7.0 | 7.2 | 7.0 | 5.0 | 0.0 | 6.8 | 4.0 | 18 | 6.1 | 15500000 | 0.2 | 15050000 | 0.3 | 0.1 | 20500000 |  |  |  |  | Average Viability CFU/ml 50 min (Staphylococcus aureus [1]; [5]): 14750000 CFU/ml; Log Reduction 50 min (Staphylococcus aureus [1]; [5]): 0.2
2 | N[C@H](Cc1c[nH]cn1)C(=O)O [D-Histidine] | 7.0 | 6.0 | 6.9 | 5.8 | 5.1 | 4.1 | 6.8 | 3.9 | 10900 | 3.4 | 8000000 | 0.5 |  |  | 0 | 22300000 |  |  |  |  | 
3 | CC[C@@H](C)[C@@H](N)C(=O)O [D-Isoleucine] | 0.0 | 0.0 | 6.0 | 1.1 | 0.0 | 0.0 | 0.0 | 0.0 | 0 | 7.4 | 196000 | 2.1 |  |  | 0.1 | 21300000 | 196000 | 2.1 |  |  | Average Viability CFU/ml 50 min (Staphylococcus aureus [1]; [10]): 196000 CFU/ml; Log Reduction 50 min (Staphylococcus aureus [1]; [10]): 2.1; CFU survivors, amino acid acting separately (Staphylococcus aureus [1]; standard conditions of Example 5 (2.5 μmol/mL; MPO 4.7 U/mL; GO 4.2 U/mL)): 196000 CFU
4 | CC(C)C[C@@H](N)C(=O)O [D-Leucine] | 3.8 | 2.2 | 6.7 | 2.1 | 2.7 | 2.0 | 1.8 | 1.9 |  |  | 313000 | 1.9 | 163500 | 2.2 | 0 | 24400000 | 215000 | 2.1 | 66550 | 2.6 | Average Viability CFU/ml 50 min (Staphylococcus aureus [1]; [11]): 119000 CFU/ml; Log Reduction 50 min (Staphylococcus aureus [1]; [11]): 2.3
5 | NCCCC[C@@H](N)C(=O)O [D-Lysine] |  |  |  |  |  |  |  |  |  |  |  |  |  |  |  | 25100000 |  |  | 5050000 | 0.7 | log reduction at 5000 µM (Staphylococcus aureus [2]): 0
6 | CSCC[C@@H](N)C(=O)O [D-Methionine] |  |  |  |  |  |  |  |  | 9400000 | 0.4 |  |  |  |  | 0.1 | 21100000 |  |  |  |  | 
7 | N[C@H](Cc1ccccc1)C(=O)O [D-Phenylalanine] | 5.1 | 0.0 | 7.2 | 4.9 | 0.0 | 0.0 | 0.0 | 0.0 | 0 | 7.4 | 9300000 | 0.5 | 7950000 | 0.5 | 0 | 24200000 | 8700000 | 0.5 |  |  | Average Viability CFU/ml 50 min (Staphylococcus aureus [1]; [5]): 7950000 CFU/ml; Log Reduction 50 min (Staphylococcus aureus [1]; [5]): 0.5; Average Viability CFU/ml 50 min (Staphylococcus aureus [1]; [11]): 8850000 CFU/ml; Log Reduction 50 min (Staphylococcus aureus [1]; [11]): 0.4
8 | O=C(O)[C@H]1CCCN1 [D-Proline] | 6.9 | 2.4 | 7.3 | 3.7 | 5.7 | 2.7 | 4.8 | 0.0 |  |  | 1890000 | 1.2 |  |  | 0.1 | 21400000 |  |  | 830 | 4.5 | 

Source: patent publication US8945540B2, “Compositions for enhancing the antibacterial activity of myeloperoxidase and methods of use thereof” (Exoxemis, Inc., priority 2008, dated 2015)
